Experimental data from patent publication US20080009418A1, “Selective Inhibitors” (Alchemia LTD., priority 2004, published 2008).

How the values were obtained:
Human δ-opioid (DOP) = target: T1, Human δ-opioid (DOP) (Homo sapiens, UniProt P41143); test: Radioligand binding, human δ-opioid (DOP) membranes, FlashPlate, [3H]-Bremazocine; details: compound at 10 μM; [3H]-Bremazocine, FlashPlate
T1 construct: purchased Perkin Elmer Biosignal
Outline: (§1)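 Cloned human receptor membranes were coated onto FlashPlate wells and incubated with radioligand and compound (added from a 0.5 mM DMSO daughter plate) for 1 hour at room temperature in the dark. Scintillation counting gave percent inhibition, with DMSO defining total and reference ligand defining non-specific binding.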

Human κ-Opioid (KOP) = target: T2, Human κ-Opioid (KOP) (Homo sapiens, UniProt P41145); test: Radioligand binding, human κ-opioid (KOP) membranes, filtration, [3H]-Diprenorphine; details: compound at 10 μM; [3H]-Diprenorphine, filtration
T2 construct: purchased Perkin Elmer Biosignal
T2 sequence (P41145 whole entry): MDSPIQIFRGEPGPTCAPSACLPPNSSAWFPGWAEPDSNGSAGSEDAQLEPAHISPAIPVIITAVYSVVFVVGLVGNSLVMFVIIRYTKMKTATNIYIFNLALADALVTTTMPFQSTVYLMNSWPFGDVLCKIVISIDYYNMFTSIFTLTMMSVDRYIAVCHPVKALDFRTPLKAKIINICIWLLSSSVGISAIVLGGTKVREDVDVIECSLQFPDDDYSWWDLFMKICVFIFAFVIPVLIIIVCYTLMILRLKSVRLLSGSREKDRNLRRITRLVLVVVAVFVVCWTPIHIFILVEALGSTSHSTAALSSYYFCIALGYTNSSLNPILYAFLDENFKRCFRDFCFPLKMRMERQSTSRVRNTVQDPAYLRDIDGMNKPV
Outline: (§2)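 Filtration binding on cloned human receptor membranes (1 Unit/well), [125I]-Substance P for NK1 and [3H]-Diprenorphine for KOP, 1 h at room temperature. Filters PEI-presoaked, washed with cold 50 mM Tris-HCl pH 7.4, counted by scintillation; percent inhibition calculated, reference ligand defining non-specific binding.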

Human Melanocortin (MC3) = target: T3, Human Melanocortin (MC3) (Homo sapiens, UniProt P41968); test: Radioligand binding, human melanocortin MC3 membranes, FlashPlate, [125I]-NDP-αMSH; details: compound at 10 μM; [125I]-NDP-αMSH, FlashPlate
T3 construct: purchased Perkin Elmer Biosignal
T3 sequence (P41968 whole entry): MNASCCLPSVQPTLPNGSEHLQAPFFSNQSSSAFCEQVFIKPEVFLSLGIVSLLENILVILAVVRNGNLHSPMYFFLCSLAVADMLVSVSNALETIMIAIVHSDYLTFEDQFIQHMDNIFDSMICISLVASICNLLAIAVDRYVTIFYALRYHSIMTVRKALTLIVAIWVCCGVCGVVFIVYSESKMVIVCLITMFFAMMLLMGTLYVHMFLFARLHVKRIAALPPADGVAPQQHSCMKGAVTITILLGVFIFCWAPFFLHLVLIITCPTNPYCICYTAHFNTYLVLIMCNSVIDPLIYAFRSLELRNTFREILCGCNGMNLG
Outline: as §1

Human Melanocortin (MC4) = target: T4, Human Melanocortin (MC4) (Homo sapiens, UniProt P32245); test: Radioligand binding, human melanocortin MC4 membranes, FlashPlate, [125I]-NDP-αMSH; details: compound at 10 μM; [125I]-NDP-αMSH, FlashPlate
T4 construct: purchased Perkin Elmer Biosignal
T4 sequence (P32245 whole entry): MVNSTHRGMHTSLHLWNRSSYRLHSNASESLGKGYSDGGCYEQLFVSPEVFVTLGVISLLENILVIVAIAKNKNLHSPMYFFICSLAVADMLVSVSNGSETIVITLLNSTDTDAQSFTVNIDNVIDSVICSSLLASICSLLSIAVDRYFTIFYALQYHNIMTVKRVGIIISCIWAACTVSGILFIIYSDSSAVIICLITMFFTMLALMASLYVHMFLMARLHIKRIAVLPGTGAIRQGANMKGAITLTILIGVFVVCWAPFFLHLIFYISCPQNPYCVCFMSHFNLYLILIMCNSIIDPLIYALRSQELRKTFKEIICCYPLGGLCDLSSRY
Outline: as §1

Human melanocortin (MC5) = target: T5, Human melanocortin (MC5) (Homo sapiens, UniProt P33032); test: Radioligand binding, human melanocortin MC5 membranes, FlashPlate, [125I]-NDP-αMSH; details: compound at 10 μM; [125I]-NDP-αMSH, FlashPlate
T5 construct: purchased Perkin Elmer Biosignal
T5 sequence (P33032 whole entry): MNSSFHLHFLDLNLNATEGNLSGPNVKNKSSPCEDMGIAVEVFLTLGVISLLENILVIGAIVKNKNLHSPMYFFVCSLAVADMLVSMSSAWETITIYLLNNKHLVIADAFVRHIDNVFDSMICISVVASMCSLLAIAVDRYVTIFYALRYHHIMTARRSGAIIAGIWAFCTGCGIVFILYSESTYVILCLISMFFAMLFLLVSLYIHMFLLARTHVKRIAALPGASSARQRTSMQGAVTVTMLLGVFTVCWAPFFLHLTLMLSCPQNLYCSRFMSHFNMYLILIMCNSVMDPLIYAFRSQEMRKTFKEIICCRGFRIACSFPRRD
Outline: as §1

[1] = target: T6, Human melanin-concentrating hormone (MCH1) (Homo sapiens, UniProt Q99705); test: Radioligand binding, human melanin-concentrating hormone MCH1 membranes, FlashPlate, [125I]-S36057; details: compound at 10 μM; [125I]-S36057, FlashPlate
T6 construct: purchased Perkin Elmer Biosignal
T6 sequence (Q99705 whole entry): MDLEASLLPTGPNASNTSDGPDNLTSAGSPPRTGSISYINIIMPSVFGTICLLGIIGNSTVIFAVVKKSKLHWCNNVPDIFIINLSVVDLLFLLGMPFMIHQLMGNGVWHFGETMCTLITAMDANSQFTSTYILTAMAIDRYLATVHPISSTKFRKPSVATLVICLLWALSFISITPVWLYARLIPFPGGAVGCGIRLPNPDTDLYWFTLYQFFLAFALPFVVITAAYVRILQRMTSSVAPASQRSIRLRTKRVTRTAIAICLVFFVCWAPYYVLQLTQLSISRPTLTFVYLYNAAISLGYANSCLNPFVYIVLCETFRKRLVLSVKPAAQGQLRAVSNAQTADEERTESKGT
Outline: as §1

Human μ-opioid (MOP) = target: T7, Human μ-opioid (MOP) (Homo sapiens, UniProt P35372); test: Radioligand binding, human μ-opioid (MOP) membranes, FlashPlate, [3H]-Naloxone; details: compound at 10 μM; [3H]-Naloxone, FlashPlate
T7 construct: purchased Perkin Elmer Biosignal
T7 sequence (P35372 whole entry): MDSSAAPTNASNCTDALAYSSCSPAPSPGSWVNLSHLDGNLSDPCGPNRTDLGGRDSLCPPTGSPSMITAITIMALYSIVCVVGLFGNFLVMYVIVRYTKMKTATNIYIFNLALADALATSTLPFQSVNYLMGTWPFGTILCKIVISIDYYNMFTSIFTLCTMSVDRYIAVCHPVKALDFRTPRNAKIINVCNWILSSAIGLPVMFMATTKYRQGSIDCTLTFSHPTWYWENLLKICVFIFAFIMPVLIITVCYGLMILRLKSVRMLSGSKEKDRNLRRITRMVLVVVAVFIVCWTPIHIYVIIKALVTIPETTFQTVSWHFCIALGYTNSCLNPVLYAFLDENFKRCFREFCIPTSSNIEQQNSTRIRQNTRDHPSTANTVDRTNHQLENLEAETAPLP
Outline: as §1

Human neurokinin (NK1) = target: T8, Human neurokinin (NK1) (Homo sapiens, UniProt P25103); test: Radioligand binding, human neurokinin NK1 membranes, filtration, [125I]-Substance P; details: compound at 10 μM; [125I]-Substance P, filtration
T8 construct: purchased Perkin Elmer Biosignal
T8 sequence (P25103 whole entry): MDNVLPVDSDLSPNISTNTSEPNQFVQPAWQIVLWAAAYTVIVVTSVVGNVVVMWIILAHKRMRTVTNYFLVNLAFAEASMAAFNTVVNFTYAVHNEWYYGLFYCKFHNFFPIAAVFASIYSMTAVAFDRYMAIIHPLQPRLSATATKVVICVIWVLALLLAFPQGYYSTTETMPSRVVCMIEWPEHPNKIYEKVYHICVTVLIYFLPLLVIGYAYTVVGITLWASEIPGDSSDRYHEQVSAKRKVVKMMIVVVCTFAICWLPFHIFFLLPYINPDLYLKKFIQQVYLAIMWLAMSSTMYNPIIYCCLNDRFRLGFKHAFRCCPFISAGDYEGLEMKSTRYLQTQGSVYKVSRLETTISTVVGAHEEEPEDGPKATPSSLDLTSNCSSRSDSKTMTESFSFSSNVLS
Outline: as §2

[2] = target: T9, Human neuropeptide Y (NPY-Y1) (Homo sapiens, UniProt P25929); test: Radioligand binding, human neuropeptide Y NPY-Y1 membranes, FlashPlate, [125I]-PYY; details: compound at 10 μM; [125I]-PYY, FlashPlate
T9 construct: purchased Perkin Elmer Biosignal
T9 sequence (P25929 1-384): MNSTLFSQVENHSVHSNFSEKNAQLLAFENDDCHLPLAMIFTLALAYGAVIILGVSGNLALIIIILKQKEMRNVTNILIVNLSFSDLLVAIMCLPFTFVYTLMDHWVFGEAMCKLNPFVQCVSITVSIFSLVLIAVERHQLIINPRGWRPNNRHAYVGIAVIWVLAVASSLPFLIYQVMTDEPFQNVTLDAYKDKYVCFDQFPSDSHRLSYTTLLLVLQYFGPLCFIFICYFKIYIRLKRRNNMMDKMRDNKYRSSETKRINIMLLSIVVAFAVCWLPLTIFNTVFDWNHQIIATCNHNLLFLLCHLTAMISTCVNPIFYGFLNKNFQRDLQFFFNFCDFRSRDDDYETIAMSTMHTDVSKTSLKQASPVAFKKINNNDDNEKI
Outline: as §1

Human opioid (ORL1) = target: T10, Human opioid (ORL1) (Homo sapiens, UniProt P41146); test: Radioligand binding, human opioid ORL1 membranes, FlashPlate, [125I]-Nociceptin; details: compound at 10 μM; [125I]-Nociceptin, FlashPlate
T10 construct: purchased Perkin Elmer Biosignal
T10 sequence (P41146 whole entry): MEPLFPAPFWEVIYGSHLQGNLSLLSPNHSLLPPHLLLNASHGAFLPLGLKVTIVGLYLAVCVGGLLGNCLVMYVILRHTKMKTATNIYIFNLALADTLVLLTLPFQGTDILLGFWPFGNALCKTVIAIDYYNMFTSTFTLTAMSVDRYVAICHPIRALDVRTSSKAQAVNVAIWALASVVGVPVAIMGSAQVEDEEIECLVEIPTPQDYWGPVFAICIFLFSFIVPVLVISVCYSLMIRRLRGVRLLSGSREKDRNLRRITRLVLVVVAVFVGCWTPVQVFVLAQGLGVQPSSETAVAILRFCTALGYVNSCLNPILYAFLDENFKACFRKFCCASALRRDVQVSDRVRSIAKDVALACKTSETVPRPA
Outline: as §1

Mouse urotensin (mUR2) = target: T11, Mouse urotensin (mUR2) (Mus musculus, UniProt Q8VIH9); test: Radioligand binding, mouse urotensin mUR2 membranes, FlashPlate, [125I]-Urotensin II; details: compound at 10 μM; [125I]-Urotensin II, FlashPlate
T11 construct: purchased Perkin Elmer Biosignal
T11 sequence (Q8VIH9 1-385): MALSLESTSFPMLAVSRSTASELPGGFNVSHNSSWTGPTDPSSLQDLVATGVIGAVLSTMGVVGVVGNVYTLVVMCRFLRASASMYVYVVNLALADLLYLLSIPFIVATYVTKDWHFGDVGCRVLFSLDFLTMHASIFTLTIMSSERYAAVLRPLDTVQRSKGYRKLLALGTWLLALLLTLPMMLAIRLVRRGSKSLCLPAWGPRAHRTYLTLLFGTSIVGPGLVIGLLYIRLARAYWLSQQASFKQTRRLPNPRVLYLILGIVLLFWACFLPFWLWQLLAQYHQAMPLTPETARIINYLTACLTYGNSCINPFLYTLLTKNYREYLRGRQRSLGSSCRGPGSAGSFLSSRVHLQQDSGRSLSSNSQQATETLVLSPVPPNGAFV
Outline: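 Cloned mouse urotensin (mUR2) receptor membranes from Perkin Elmer Biosignal were immobilized in FlashPlate microplates using a proprietary coating. Each well got 19.5 μl buffer, then 0.5 μl of DMSO, reference ligand, or compound. Adding 5 μl of [125I]-Urotensin II, diluted to 5× final concentration in binding buffer, started binding. Plates were sealed with TopSeal-A and incubated 1 hour at room temperature in the dark. Wells were counted for 30 seconds each on a TopCount after a 60-second delay, and percentage inhibition was calculated.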

T1 sequence (P41143 whole entry): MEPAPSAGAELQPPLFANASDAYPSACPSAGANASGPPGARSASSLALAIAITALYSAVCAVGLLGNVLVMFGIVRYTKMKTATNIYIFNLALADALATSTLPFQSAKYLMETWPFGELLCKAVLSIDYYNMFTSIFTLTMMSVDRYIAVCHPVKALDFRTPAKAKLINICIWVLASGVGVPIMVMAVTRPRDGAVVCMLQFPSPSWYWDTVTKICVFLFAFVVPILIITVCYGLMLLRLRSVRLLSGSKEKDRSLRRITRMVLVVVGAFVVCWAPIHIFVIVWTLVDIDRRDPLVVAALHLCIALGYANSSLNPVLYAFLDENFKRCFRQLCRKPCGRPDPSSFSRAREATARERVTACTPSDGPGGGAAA

Row | Compound | A1: inhibition of radioligand binding (Human δ-opioid (DOP)) | A2: inhibition of radioligand binding (Human κ-Opioid (KOP)) | A3: inhibition of radioligand binding (Human Melanocortin (MC3)) | A4: inhibition of radioligand binding (Human Melanocortin (MC4)) | A5: inhibition of radioligand binding (Human melanocortin (MC5)) | A6: inhibition of radioligand binding [1] | A7: inhibition of radioligand binding (Human μ-opioid (MOP)) | A8: inhibition of radioligand binding (Human neurokinin (NK1)) | A9: inhibition of radioligand binding [2] | A10: inhibition of radioligand binding (Human opioid (ORL1)) | A11: inhibition of radioligand binding (Mouse urotensin (mUR2))
1 | CSC1OC(COCc2ccc3ccccc3c2)C(O)C(OCc2ccccc2)C1NC(=O)CCN (stereo not drawn) [compound 261] | − (“−” indicates less than 50% inhibition at 10 μM) | − (“−” indicates less than 50% inhibition at 10 μM) | − (“−” indicates less than 50% inhibition at 10 μM) | − (“−” indicates less than 50% inhibition at 10 μM) | + (“+” indicates greater than 50% inhibition at 10 μM) | − (“−” indicates less than 50% inhibition at 10 μM) | − (“−” indicates less than 50% inhibition at 10 μM) | − (“−” indicates less than 50% inhibition at 10 μM) | − (“−” indicates less than 50% inhibition at 10 μM) | − (“−” indicates less than 50% inhibition at 10 μM) | − (“−” indicates less than 50% inhibition at 10 μM)
2 | CSC1OC(COCc2ccc3ccccc3c2)C(O)C(OCc2ccccc2)C1NC(=O)CCNC(=N)N (stereo not drawn) [compound 262] | − (“−” indicates less than 50% inhibition at 10 μM) | − (“−” indicates less than 50% inhibition at 10 μM) | − (“−” indicates less than 50% inhibition at 10 μM) | − (“−” indicates less than 50% inhibition at 10 μM) | + (“+” indicates greater than 50% inhibition at 10 μM) | − (“−” indicates less than 50% inhibition at 10 μM) | − (“−” indicates less than 50% inhibition at 10 μM) | + (“+” indicates greater than 50% inhibition at 10 μM) | − (“−” indicates less than 50% inhibition at 10 μM) | − (“−” indicates less than 50% inhibition at 10 μM) | − (“−” indicates less than 50% inhibition at 10 μM)
3 | CSC1OC(COCc2ccc3ccccc3c2)C(O)C(OCc2ccccc2)C1NC(=O)CCCN (stereo not drawn) [compound 263] | − (“−” indicates less than 50% inhibition at 10 μM) | − (“−” indicates less than 50% inhibition at 10 μM) | − (“−” indicates less than 50% inhibition at 10 μM) | − (“−” indicates less than 50% inhibition at 10 μM) | − (“−” indicates less than 50% inhibition at 10 μM) | − (“−” indicates less than 50% inhibition at 10 μM) | − (“−” indicates less than 50% inhibition at 10 μM) | + (“+” indicates greater than 50% inhibition at 10 μM) | − (“−” indicates less than 50% inhibition at 10 μM) | − (“−” indicates less than 50% inhibition at 10 μM) | − (“−” indicates less than 50% inhibition at 10 μM)
4 | CSC1OC(COCc2ccc3ccccc3c2)C(O)C(OCc2ccccc2)C1NC(=O)CCCNC(=N)N (stereo not drawn) [compound 264] | − (“−” indicates less than 50% inhibition at 10 μM) | − (“−” indicates less than 50% inhibition at 10 μM) | − (“−” indicates less than 50% inhibition at 10 μM) | − (“−” indicates less than 50% inhibition at 10 μM) | − (“−” indicates less than 50% inhibition at 10 μM) | − (“−” indicates less than 50% inhibition at 10 μM) | − (“−” indicates less than 50% inhibition at 10 μM) | + (“+” indicates greater than 50% inhibition at 10 μM) | − (“−” indicates less than 50% inhibition at 10 μM) | − (“−” indicates less than 50% inhibition at 10 μM) | − (“−” indicates less than 50% inhibition at 10 μM)
5 | CSC1OC(COCc2ccccc2)C(O)C(OCc2ccc(Cl)cc2)C1NC(=O)CNC(=N)N (stereo not drawn) [compound 265] | − (“−” indicates less than 50% inhibition at 10 μM) | − (“−” indicates less than 50% inhibition at 10 μM) | − (“−” indicates less than 50% inhibition at 10 μM) | + (“+” indicates greater than 50% inhibition at 10 μM) | − (“−” indicates less than 50% inhibition at 10 μM) | − (“−” indicates less than 50% inhibition at 10 μM) | − (“−” indicates less than 50% inhibition at 10 μM) | + (“+” indicates greater than 50% inhibition at 10 μM) | − (“−” indicates less than 50% inhibition at 10 μM) | − (“−” indicates less than 50% inhibition at 10 μM) | − (“−” indicates less than 50% inhibition at 10 μM)
6 | CSC1OC(COCc2ccccc2)C(O)C(OCc2ccc(Cl)cc2)C1NC(=O)CCN (stereo not drawn) [compound 266] | − (“−” indicates less than 50% inhibition at 10 μM) | − (“−” indicates less than 50% inhibition at 10 μM) | − (“−” indicates less than 50% inhibition at 10 μM) | − (“−” indicates less than 50% inhibition at 10 μM) | − (“−” indicates less than 50% inhibition at 10 μM) | − (“−” indicates less than 50% inhibition at 10 μM) | − (“−” indicates less than 50% inhibition at 10 μM) | + (“+” indicates greater than 50% inhibition at 10 μM) | − (“−” indicates less than 50% inhibition at 10 μM) | − (“−” indicates less than 50% inhibition at 10 μM) | − (“−” indicates less than 50% inhibition at 10 μM)
